Laboratory results: ChEMBL document CHEMBL4507304, “Data for DCP probe TP-021” (2021)

Columns and labels:
[1] = target: 5-hydroxytryptamine receptor 3A (Homo sapiens) (UniProt P46098); details: Compound concentration 10.0 uM
[2] = target: Epithelial discoidin domain-containing receptor 1 (Homo sapiens) (UniProt Q08345); details: Compound concentration 1000.0 nM
[3] = target: Serine/threonine-protein kinase N1 (Homo sapiens) (UniProt Q16512); details: Compound concentration 1000.0 nM
[4] = target: Mast/stem cell growth factor receptor Kit (Homo sapiens) (UniProt P10721); details: Compound concentration 1000.0 nM
[5] = target: Serine/threonine-protein kinase 36 (Homo sapiens) (UniProt Q9NRP7); details: Compound concentration 1000.0 nM
[6] = target: Rhodopsin kinase GRK7 (Homo sapiens) (UniProt Q8WTQ7); details: Compound concentration 1000.0 nM
[7] = target: Serine/threonine-protein kinase PRP4 homolog (Homo sapiens) (UniProt Q13523); details: Compound concentration 1000.0 nM
[8] = target: RAC-alpha serine/threonine-protein kinase (Homo sapiens) (UniProt P31749); details: Compound concentration 1000.0 nM
[9] = target: Casein kinase I isoform delta (Homo sapiens) (UniProt P48730); details: Compound concentration 1000.0 nM
[10] = target: Tyrosine-protein kinase FRK (Homo sapiens) (UniProt P42685); details: Compound concentration 1000.0 nM
[11] = target: Receptor-type tyrosine-protein kinase FLT3 (Homo sapiens) (UniProt P36888); details: Compound concentration 1000.0 nM
[12] = target: Insulin receptor-related protein (Homo sapiens) (UniProt P14616); details: Compound concentration 1000.0 nM
[13] = target: Tyrosine-protein kinase Fes/Fps (Homo sapiens) (UniProt P07332); details: Compound concentration 1000.0 nM
[14] = target: MAP/microtubule affinity-regulating kinase 4 (Homo sapiens) (UniProt Q96L34); details: Compound concentration 1000.0 nM
[15] = target: Serine/threonine-protein kinase D1 (Homo sapiens) (UniProt Q15139); details: Compound concentration 1000.0 nM
[16] = target: Tyrosine-protein kinase BTK (Homo sapiens) (UniProt Q06187); details: Compound concentration 1000.0 nM
[17] = target: Sodium-dependent serotonin transporter (Homo sapiens) (UniProt P31645); details: Compound concentration 10.0 uM
[18] = target: Serine/threonine-protein kinase SBK1 (Homo sapiens) (UniProt Q52WX2); details: Compound concentration 1000.0 nM
[19] = target: TGF-beta receptor type-2 (Homo sapiens) (UniProt P37173); details: Compound concentration 1000.0 nM
[20] = system: Leucine-rich repeat serine/threonine-protein kinase 2 (Homo sapiens), Q5S007 [G2019S]; details: Compound concentration 1000.0 nM
[21] = target: Mitogen-activated protein kinase kinase kinase 20 (Homo sapiens) (UniProt Q9NYL2); details: Compound concentration 1000.0 nM
[22] = target: Serine/threonine-protein kinase PAK 6 (Homo sapiens) (UniProt Q9NQU5); details: Compound concentration 1000.0 nM
[23] = target: G protein-coupled receptor kinase 3 (Homo sapiens) (UniProt P35626); details: Compound concentration 1000.0 nM
[24] = target: BDNF/NT-3 growth factors receptor (Homo sapiens) (UniProt Q16620); details: Compound concentration 1000.0 nM
[25] = target: Beta-2 adrenergic receptor (Homo sapiens) (UniProt P07550); details: Compound concentration 10.0 uM
[26] = target: Microtubule-associated serine/threonine-protein kinase 1 (Homo sapiens) (UniProt Q9Y2H9); details: Compound concentration 1000.0 nM
[27] = target: RAC-gamma serine/threonine-protein kinase (Homo sapiens) (UniProt Q9Y243); details: Compound concentration 1000.0 nM
[28] = target: Mitotic checkpoint serine/threonine-protein kinase BUB1 (Homo sapiens) (UniProt O43683); details: Compound concentration 1000.0 nM
[29] = target: cAMP-dependent protein kinase catalytic subunit PRKX (Homo sapiens) (UniProt P51817); details: Compound concentration 1000.0 nM
[30] = target: D(3) dopamine receptor (Homo sapiens) (UniProt P35462); details: Compound concentration 10.0 uM
[31] = target: Protein kinase C iota type (Homo sapiens) (UniProt P41743); details: Compound concentration 1000.0 nM
[32] = target: Serine/threonine-protein kinase N2 (Homo sapiens) (UniProt Q16513); details: Compound concentration 1000.0 nM
[33] = target: Calcium/calmodulin-dependent protein kinase kinase 2 (Homo sapiens) (UniProt Q96RR4); details: Compound concentration 1000.0 nM
[34] = target: Serine/threonine-protein kinase BRSK2 (Homo sapiens) (UniProt Q8IWQ3); details: Compound concentration 1000.0 nM
[35] = target: Dual specificity mitogen-activated protein kinase kinase 3 (Homo sapiens) (UniProt P46734); details: Compound concentration 1000.0 nM
[36] = target: Activated CDC42 kinase 1 (Homo sapiens) (UniProt Q07912); details: Compound concentration 1000.0 nM
[37] = target: Aurora kinase C (Homo sapiens) (UniProt Q9UQB9); details: Compound concentration 1000.0 nM
[38] = target: Mitogen-activated protein kinase 10 (Homo sapiens) (UniProt P53779); details: Compound concentration 1000.0 nM
[39] = target: Cyclin-dependent kinase 11A (Homo sapiens) (UniProt Q9UQ88); details: Compound concentration 1000.0 nM
[40] = target: Mitogen-activated protein kinase kinase kinase kinase 1 (Homo sapiens) (UniProt Q92918); details: Compound concentration 1000.0 nM
[41] = target: Ribosomal protein S6 kinase alpha-3 (Homo sapiens) (UniProt P51812); details: Compound concentration 1000.0 nM
[42] = target: Calcium/calmodulin-dependent protein kinase type II subunit gamma (Homo sapiens) (UniProt Q13555); details: Compound concentration 1000.0 nM
[43] = target: Casein kinase I isoform gamma-2 (Homo sapiens) (UniProt P78368); details: Compound concentration 1000.0 nM
[44] = target: High affinity nerve growth factor receptor (Homo sapiens) (UniProt P04629); details: Compound concentration 1000.0 nM
[45] = target: Cyclin-dependent kinase 9 (Homo sapiens) (UniProt P50750); details: Compound concentration 1000.0 nM

Protein kinase C iota type (Homo sapiens), sequence (P41743 whole entry): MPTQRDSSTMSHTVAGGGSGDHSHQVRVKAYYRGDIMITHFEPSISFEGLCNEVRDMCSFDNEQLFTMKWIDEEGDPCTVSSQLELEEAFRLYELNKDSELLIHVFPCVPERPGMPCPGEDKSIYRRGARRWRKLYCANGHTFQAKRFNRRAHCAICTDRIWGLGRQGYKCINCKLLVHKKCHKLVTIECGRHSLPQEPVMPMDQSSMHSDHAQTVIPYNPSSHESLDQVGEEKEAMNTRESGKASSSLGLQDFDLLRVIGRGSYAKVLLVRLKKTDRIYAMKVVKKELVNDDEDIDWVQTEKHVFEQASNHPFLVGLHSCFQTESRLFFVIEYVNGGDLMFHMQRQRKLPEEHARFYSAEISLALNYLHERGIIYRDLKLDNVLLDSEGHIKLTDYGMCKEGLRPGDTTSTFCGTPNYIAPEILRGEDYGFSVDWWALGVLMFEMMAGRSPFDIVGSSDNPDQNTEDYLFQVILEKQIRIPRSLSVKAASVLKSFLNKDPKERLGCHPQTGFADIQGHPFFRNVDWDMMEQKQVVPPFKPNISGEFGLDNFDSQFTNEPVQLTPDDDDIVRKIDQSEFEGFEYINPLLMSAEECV
Serine/threonine-protein kinase N1 (Homo sapiens), sequence (Q16512 2-942 limits assumed): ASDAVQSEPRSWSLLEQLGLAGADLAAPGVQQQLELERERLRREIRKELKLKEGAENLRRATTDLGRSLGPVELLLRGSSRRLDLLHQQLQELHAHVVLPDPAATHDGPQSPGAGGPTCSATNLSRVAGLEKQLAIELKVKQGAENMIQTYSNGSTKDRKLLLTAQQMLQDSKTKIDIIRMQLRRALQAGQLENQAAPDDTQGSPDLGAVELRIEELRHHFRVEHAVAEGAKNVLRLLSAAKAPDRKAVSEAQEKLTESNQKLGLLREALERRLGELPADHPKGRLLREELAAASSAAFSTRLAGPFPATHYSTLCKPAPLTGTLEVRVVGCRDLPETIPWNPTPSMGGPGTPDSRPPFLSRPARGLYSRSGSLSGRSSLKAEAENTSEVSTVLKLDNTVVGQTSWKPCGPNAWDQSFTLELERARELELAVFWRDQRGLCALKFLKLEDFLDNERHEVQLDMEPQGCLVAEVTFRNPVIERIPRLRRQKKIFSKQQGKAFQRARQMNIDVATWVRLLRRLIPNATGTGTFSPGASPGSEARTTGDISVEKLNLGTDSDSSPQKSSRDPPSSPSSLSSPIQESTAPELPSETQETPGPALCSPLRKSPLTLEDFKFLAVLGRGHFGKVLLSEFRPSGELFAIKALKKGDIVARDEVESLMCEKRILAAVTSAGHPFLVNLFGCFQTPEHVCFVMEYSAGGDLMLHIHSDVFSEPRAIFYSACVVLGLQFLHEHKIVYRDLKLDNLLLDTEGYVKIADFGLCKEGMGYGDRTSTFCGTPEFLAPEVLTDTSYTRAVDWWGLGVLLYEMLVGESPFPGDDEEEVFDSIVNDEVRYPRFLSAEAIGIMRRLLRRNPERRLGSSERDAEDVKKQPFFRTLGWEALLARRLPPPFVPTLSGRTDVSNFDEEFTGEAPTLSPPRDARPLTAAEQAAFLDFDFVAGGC
Leucine-rich repeat serine/threonine-protein kinase 2 (Homo sapiens), Q5S007 [G2019S], sequence (Q5S007 whole entry G2019S): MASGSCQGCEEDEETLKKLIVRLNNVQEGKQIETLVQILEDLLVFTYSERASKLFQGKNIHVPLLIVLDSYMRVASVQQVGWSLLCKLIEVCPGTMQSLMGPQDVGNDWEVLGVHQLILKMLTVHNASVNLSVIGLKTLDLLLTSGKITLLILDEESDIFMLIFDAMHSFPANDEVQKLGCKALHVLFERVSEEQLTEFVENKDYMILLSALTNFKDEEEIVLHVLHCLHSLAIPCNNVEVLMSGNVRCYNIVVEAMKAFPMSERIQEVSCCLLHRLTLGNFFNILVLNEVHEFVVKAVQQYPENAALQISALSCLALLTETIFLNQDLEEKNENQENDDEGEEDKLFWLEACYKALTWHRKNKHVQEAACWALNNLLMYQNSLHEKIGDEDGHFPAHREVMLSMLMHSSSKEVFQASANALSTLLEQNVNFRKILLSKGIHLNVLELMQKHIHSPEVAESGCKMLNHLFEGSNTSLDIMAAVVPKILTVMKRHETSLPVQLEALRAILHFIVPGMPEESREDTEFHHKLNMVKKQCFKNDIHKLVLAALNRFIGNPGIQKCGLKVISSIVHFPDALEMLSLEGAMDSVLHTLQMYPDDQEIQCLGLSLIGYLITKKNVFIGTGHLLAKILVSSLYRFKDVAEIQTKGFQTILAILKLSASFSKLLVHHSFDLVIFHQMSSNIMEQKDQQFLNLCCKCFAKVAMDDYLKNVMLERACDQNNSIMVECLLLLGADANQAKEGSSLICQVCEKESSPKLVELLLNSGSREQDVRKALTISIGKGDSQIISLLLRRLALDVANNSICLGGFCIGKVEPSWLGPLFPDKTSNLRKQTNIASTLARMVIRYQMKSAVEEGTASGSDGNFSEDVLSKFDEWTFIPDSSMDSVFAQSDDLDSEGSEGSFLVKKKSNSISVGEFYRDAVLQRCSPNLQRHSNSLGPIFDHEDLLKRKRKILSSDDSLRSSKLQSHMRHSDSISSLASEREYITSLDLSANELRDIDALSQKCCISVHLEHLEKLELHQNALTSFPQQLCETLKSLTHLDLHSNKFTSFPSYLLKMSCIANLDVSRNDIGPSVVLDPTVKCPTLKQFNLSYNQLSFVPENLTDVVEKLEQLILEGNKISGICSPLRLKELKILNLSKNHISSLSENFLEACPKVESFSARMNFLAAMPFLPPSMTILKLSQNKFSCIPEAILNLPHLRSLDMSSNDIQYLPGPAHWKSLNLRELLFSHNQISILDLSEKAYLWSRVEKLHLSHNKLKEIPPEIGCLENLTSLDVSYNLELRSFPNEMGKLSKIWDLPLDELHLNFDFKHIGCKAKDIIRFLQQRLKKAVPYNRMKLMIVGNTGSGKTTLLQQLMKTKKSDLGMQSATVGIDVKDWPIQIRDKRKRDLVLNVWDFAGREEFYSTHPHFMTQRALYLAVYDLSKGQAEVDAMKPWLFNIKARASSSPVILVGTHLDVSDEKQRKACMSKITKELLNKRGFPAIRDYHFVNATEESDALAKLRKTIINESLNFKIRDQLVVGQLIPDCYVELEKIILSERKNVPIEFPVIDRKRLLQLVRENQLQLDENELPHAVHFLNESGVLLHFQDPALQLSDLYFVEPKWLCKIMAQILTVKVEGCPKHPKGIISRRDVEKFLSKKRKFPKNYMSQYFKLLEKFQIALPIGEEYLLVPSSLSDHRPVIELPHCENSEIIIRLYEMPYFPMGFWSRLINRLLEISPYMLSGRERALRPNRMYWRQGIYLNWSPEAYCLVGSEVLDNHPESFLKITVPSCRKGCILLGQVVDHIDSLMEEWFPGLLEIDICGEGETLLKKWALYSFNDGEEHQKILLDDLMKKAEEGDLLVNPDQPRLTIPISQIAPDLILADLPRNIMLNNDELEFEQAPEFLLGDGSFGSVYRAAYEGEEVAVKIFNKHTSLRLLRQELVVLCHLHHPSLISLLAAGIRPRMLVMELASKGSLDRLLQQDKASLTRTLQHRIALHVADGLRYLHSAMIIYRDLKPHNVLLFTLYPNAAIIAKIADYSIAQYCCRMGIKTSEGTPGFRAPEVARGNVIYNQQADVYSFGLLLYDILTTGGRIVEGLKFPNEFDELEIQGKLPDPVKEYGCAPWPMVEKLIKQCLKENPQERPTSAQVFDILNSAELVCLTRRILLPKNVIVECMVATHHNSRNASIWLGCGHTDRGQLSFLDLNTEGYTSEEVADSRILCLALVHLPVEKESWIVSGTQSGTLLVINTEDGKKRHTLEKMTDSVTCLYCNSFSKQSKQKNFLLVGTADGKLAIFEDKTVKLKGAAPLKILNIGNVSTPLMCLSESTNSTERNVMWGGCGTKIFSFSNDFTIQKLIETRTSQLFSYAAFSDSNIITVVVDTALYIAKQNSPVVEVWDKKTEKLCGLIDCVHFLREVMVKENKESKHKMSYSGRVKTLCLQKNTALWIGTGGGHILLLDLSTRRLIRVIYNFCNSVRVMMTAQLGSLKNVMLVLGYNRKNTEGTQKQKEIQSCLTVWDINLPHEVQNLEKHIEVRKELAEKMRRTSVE
Casein kinase I isoform gamma-2 (Homo sapiens), sequence (P78368 whole entry, looked up, canonical isoform): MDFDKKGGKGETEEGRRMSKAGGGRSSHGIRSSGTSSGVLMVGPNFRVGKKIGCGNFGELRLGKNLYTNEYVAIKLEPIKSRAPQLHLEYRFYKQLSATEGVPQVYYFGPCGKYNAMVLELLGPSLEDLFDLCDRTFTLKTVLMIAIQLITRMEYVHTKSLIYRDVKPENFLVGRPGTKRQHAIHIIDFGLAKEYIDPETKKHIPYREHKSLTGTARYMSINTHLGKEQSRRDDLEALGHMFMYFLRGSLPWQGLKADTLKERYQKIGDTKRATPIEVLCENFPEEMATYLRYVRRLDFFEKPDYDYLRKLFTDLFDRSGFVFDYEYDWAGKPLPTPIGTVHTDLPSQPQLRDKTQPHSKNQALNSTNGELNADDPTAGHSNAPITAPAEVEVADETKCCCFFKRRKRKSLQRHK
RAC-gamma serine/threonine-protein kinase (Homo sapiens), sequence (Q9Y243 whole entry): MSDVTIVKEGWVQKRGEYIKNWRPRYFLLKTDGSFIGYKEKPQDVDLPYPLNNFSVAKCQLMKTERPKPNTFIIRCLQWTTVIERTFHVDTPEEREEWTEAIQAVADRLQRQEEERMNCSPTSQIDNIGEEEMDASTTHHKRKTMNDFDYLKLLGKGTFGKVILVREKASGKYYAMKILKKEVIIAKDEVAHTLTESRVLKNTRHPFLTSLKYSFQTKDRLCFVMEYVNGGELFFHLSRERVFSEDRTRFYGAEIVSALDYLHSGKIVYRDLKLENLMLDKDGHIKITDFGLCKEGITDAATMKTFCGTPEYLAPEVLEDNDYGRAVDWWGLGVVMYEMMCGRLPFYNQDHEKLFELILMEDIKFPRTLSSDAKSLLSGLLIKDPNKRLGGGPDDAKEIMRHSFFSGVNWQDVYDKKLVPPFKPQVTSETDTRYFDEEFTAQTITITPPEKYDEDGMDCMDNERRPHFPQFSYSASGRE

N#Cc1ccc(Nc2ccc3[nH]c(=O)[nH]c3c2)c(Cl)c1
inactive: inhibition [1] 1.33% | residual activity [2] 100% | residual activity [3] 100% | residual activity [4] 100% | residual activity [5] 100% | residual activity [6] 100% | residual activity [7] 99% | residual activity [8] 67% | residual activity [9] 100% | residual activity [10] 73% | residual activity [11] 97% | residual activity [12] 100% | residual activity [13] 100% | residual activity [14] 99% | residual activity [15] 82% | residual activity [16] 100% | inhibition [17] 21.1% | residual activity [18] 93% | residual activity [19] 100% | residual activity [20] 93% | residual activity [21] 100% | residual activity [22] 85% | residual activity [23] 100% | residual activity [24] 100% | inhibition [25] -0.51% | residual activity [26] 100% | residual activity [27] 69% | residual activity [28] 100% | residual activity [29] 100% | inhibition [30] 3.81% | residual activity [31] 86% | residual activity [32] 76% | residual activity [33] 91% | residual activity [34] 100% | residual activity [35] 75% | residual activity [36] 90% | residual activity [37] 100% | residual activity [38] 100% | residual activity [39] 97% | residual activity [40] 100% | residual activity [41] 100% | residual activity [42] 78% | residual activity [43] 100% | residual activity [44] 93% | residual activity [45] 100%

O=C1CCc2cc(Nc3cc(OC4CCOCC4)c([N+](=O)[O-])cc3Cl)ccc2N1
inactive: inhibition [1] 4.05% | residual activity [2] 94% | residual activity [3] 100% | residual activity [4] 95% | residual activity [5] 96% | residual activity [6] 100% | residual activity [7] 100% | residual activity [8] 98% | residual activity [9] 90% | residual activity [10] 73% | residual activity [11] 99% | residual activity [12] 100% | residual activity [13] 100% | residual activity [14] 100% | residual activity [15] 87% | residual activity [16] 100% | inhibition [17] 23.5% | residual activity [18] 97% | residual activity [19] 98% | residual activity [20] 100% | residual activity [21] 81% | residual activity [22] 86% | residual activity [23] 100% | residual activity [24] 100% | inhibition [25] -1.73% | residual activity [26] 100% | residual activity [27] 94% | residual activity [28] 89% | residual activity [29] 100% | inhibition [30] 35.4% | residual activity [31] 98% | residual activity [32] 100% | residual activity [33] 100% | residual activity [34] 100% | residual activity [35] 86% | residual activity [36] 100% | residual activity [37] 100% | residual activity [38] 98% | residual activity [39] 100% | residual activity [40] 100% | residual activity [41] 100% | residual activity [42] 100% | residual activity [43] 88% | residual activity [44] 94% | residual activity [45] 97%
